Measurements from the supplement of paper PMC10627819.

Experiments:
S. aureus DSM 20231 = assay: Bliss interaction score (quartile over a dose matrix) (fitness difference); higher = more antagonism (negative = synergy)
In short: (§1)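 Each OD595 reading at entry into stationary phase was scaled to the robust mean of the untreated wells on its plate, with a ceiling of 1. These ratios define fitness, and single-drug fitness was inferred from combinations. The Bliss score compares observed fitness with the product-based expectation and is reported as quartiles across all replicate types, technical, biological and donor/recipient.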

S. pneumoniae D39V [1] = assay: as above
In short: as §1

B. subtilis 168 [2] = assay: as above
In short: as §1

S. aureus Newman [3] = assay: as above
In short: as §1

S. pneumoniae D39V [4] = assay: fitness (endpoint OD595 vs no drug) (fraction); higher = more growth
In short: (§2)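 Plates with 384 wells were inoculated at OD595 0.01 using 30 µl of TSB, LB Lennox or CY, or 55 µl for S. pneumoniae. Incubation was at 37 °C, with OD595 measured every 30 min for 14 h. Fitness is the stationary-phase transition optical density over the robust mean of no-drug control wells, after first-reading background subtraction; it is capped at 1.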

B. subtilis 168 [5] = assay: as above
In short: as §2

S. aureus Newman [6] = assay: as above
In short: as §2
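Wherever Bliss interaction score (quartile over a dose matrix) is given: first quartile when negative (synergy) and third quartile when positive (antagonism).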

CC1=C(C(=O)O)N2C(=O)[C@@H](NC(=O)[C@H](N)c3ccccc3)[C@H]2SC1 [Cephalexin] + CN[C@@H]1[C@H](O[C@H]2[C@H](O[C@H]3[C@H](O)[C@@H](O)[C@H](N=C(N)N)[C@@H](O)[C@@H]3N=C(N)N)O[C@@H](C)[C@]2(O)C=O)O[C@@H](CO)[C@H](O)[C@H]1O [Streptomycin]
Conditions | Bliss interaction score
B. subtilis 168 [2] | 0.0604
S. aureus DSM 20231 | -0.157
S. aureus Newman [3] | 0.0561
S. pneumoniae D39V [1] | -0.153

fitness, S. pneumoniae D39V [4], one replicate
Conditions | first compound 0.125 µg/mL | first compound 0.25 µg/mL | first compound 0.5 µg/mL | first compound 1 µg/mL | first compound 2 µg/mL | first compound 4 µg/mL
partner 2 µg/mL | 0.86 | 0.913 | 0.953 | 0.386 | 0.0034 | 0.0206
partner 4 µg/mL | 0.901 | 0.91 | 0.911 | – | – | –
partner 8 µg/mL | 0.961 | 0.898 | 0.896 | – | – | –
partner 16 µg/mL | – | – | – | 0.198 | 0.0581 | 0.0194

fitness
Conditions | first compound 0.125 µg/mL | first compound 0.25 µg/mL | first compound 0.5 µg/mL | first compound 1 µg/mL | first compound 2 µg/mL | first compound 4 µg/mL
B. subtilis 168 [5], partner 2 µg/mL | 0.94 | 0.923 | 0.932 | – | – | –
B. subtilis 168 [5], partner 8 µg/mL | 0.031 | 0.0416 | 0.0533 | – | – | –
S. aureus Newman [6], partner 1 µg/mL | – | 0.944 | 0.967 | 0.987 | – | –
S. aureus Newman [6], partner 2 µg/mL | – | 0.976 | ≥ 1 | ≥ 1 | – | –
S. pneumoniae D39V [4], partner 4 µg/mL | – | – | – | 0.454 | 0.0189 | 0.0459
S. pneumoniae D39V [4], partner 8 µg/mL | – | – | – | 0.408 | 0.0381 | 0.0337

CC1=C(C(=O)O)N2C(=O)[C@@H](NC(=O)[C@H](N)c3ccccc3)[C@H]2SC1 [Cephalexin] + COc1c(N2C[C@@H]3CCCN[C@@H]3C2)c(F)cc2c(=O)c(C(=O)O)cn(C3CC3)c12 [Moxifloxacin]
Conditions | Bliss interaction score
B. subtilis 168 [2] | 0.0149
S. aureus DSM 20231 | -0.0585
S. aureus Newman [3] | 0.07
S. pneumoniae D39V [1] | -0.0683

fitness, S. pneumoniae D39V [4], one replicate
Conditions | first compound 0.125 µg/mL | first compound 0.25 µg/mL | first compound 0.5 µg/mL
partner 0.0037 µg/mL | 0.856 | 0.855 | 0.836
partner 0.0075 µg/mL | 0.948 | 0.843 | 0.819
partner 0.015 µg/mL | 0.839 | 0.813 | 0.808

Conditions | fitness
B. subtilis 168 [5], first compound 0.125 µg/mL, partner 2 µg/mL | 0.0423
B. subtilis 168 [5], first compound 0.125 µg/mL, partner 4 µg/mL | 0.0453
B. subtilis 168 [5], first compound 0.125 µg/mL, partner 8 µg/mL | 0.0194
B. subtilis 168 [5], first compound 0.25 µg/mL, partner 0.0312 µg/mL | 0.0487
B. subtilis 168 [5], first compound 0.25 µg/mL, partner 0.0625 µg/mL | 0.0549
B. subtilis 168 [5], first compound 0.25 µg/mL, partner 0.125 µg/mL | 0.0364
B. subtilis 168 [5], first compound 0.25 µg/mL, partner 2 µg/mL | 0.0473
B. subtilis 168 [5], first compound 0.25 µg/mL, partner 4 µg/mL | 0.0392
B. subtilis 168 [5], first compound 0.25 µg/mL, partner 8 µg/mL | 0.027
B. subtilis 168 [5], first compound 0.5 µg/mL, partner 0.0312 µg/mL | 0.0585
B. subtilis 168 [5], first compound 0.5 µg/mL, partner 0.0625 µg/mL | 0.0464
B. subtilis 168 [5], first compound 0.5 µg/mL, partner 0.125 µg/mL | 0.0607
B. subtilis 168 [5], first compound 0.5 µg/mL, partner 2 µg/mL | 0.0441
B. subtilis 168 [5], first compound 0.5 µg/mL, partner 4 µg/mL | 0.0483
B. subtilis 168 [5], first compound 0.5 µg/mL, partner 8 µg/mL | 0.0385
B. subtilis 168 [5], first compound 1 µg/mL, partner 0.0312 µg/mL | 0.0562
B. subtilis 168 [5], first compound 1 µg/mL, partner 0.0625 µg/mL | 0.0588
B. subtilis 168 [5], first compound 1 µg/mL, partner 0.125 µg/mL | 0.0618
S. aureus Newman [6], first compound 0.25 µg/mL, partner 0.0075 µg/mL | 0.788
S. aureus Newman [6], first compound 0.5 µg/mL, partner 0.0075 µg/mL | 0.812
S. aureus Newman [6], first compound 0.5 µg/mL, partner 0.015 µg/mL | 0.691
S. aureus Newman [6], first compound 1 µg/mL, partner 0.0075 µg/mL | 0.807
S. pneumoniae D39V [4], first compound 4 µg/mL, partner 0.005 µg/mL | 0.0502
S. pneumoniae D39V [4], first compound 4 µg/mL, partner 0.01 µg/mL | 0.059
S. pneumoniae D39V [4], first compound 4 µg/mL, partner 0.02 µg/mL | 0.0505

CC1=C(C(=O)O)N2C(=O)[C@@H](NC(=O)[C@H](N)c3ccccc3)[C@H]2SC1 [Cephalexin] + COc1ccc(C[C@H](N)C(=O)N[C@H]2[C@@H](O)[C@H](n3cnc4c(N(C)C)ncnc43)O[C@@H]2CO)cc1 [Puromycin]
Conditions | Bliss interaction score
B. subtilis 168 [2] | 0.0628
S. aureus DSM 20231 | 0.0696
S. aureus Newman [3] | 0.043
S. pneumoniae D39V [1] | -0.101

fitness, S. pneumoniae D39V [4], one replicate
Conditions | first compound 0.125 µg/mL | first compound 0.25 µg/mL | first compound 0.5 µg/mL | first compound 1 µg/mL | first compound 2 µg/mL | first compound 4 µg/mL
partner 1 µg/mL | ≥ 1 | ≥ 1 | ≥ 1 | 0.158 | 0.0772 | 0.0589
partner 2 µg/mL | 0.939 | 0.926 | ≥ 1 | 0.3 | 0.0861 | 0.055
partner 4 µg/mL | 0.798 | 0.883 | 0.893 | 0.0824 | 0.0686 | 0.047

fitness
Conditions | first compound 0.125 µg/mL | first compound 0.25 µg/mL | first compound 0.5 µg/mL | first compound 1 µg/mL
B. subtilis 168 [5], partner 0.39 µg/mL | 0.944 | 0.912 | 0.869 | –
B. subtilis 168 [5], partner 0.78 µg/mL | 0.952 | 0.891 | 0.935 | –
B. subtilis 168 [5], partner 1.56 µg/mL | 0.921 | 0.888 | 0.938 | –
S. aureus Newman [6], partner 0.39 µg/mL | – | 0.991 | ≥ 1 | 0.99
S. aureus Newman [6], partner 0.78 µg/mL | – | ≥ 1 | ≥ 1 | ≥ 1
S. aureus Newman [6], partner 1.56 µg/mL | – | ≥ 1 | 0.976 | 0.991

CC1=C(C(=O)O)N2C(=O)[C@@H](NC(=O)[C@H](N)c3ccccc3)[C@H]2SC1 [Cephalexin] + C[n+]1ccc(-c2cc[n+](C)cc2)cc1 [Paraquat]
Conditions | Bliss interaction score
B. subtilis 168 [2] | 0.0473
S. aureus DSM 20231 | 0.0584
S. aureus Newman [3] | 0.0521
S. pneumoniae D39V [1] | 0.135

fitness, S. pneumoniae D39V [4], one replicate
Conditions | first compound 0.125 µg/mL | first compound 0.25 µg/mL | first compound 0.5 µg/mL | first compound 1 µg/mL | first compound 2 µg/mL | first compound 4 µg/mL
partner 1.5 µg/mL | 0.999 | 0.982 | 0.998 | 0.828 | 0.21 | 0.0243
partner 3 µg/mL | 0.909 | 0.913 | 0.928 | 0.865 | 0.286 | 0.0238
partner 6 µg/mL | 0.896 | 0.897 | 0.9 | 0.861 | 0.328 | 0.0875

fitness
Conditions | first compound 0.125 µg/mL | first compound 0.25 µg/mL | first compound 0.5 µg/mL | first compound 1 µg/mL
B. subtilis 168 [5], partner 1.25 µg/mL | 0.908 | 0.892 | 0.924 | –
B. subtilis 168 [5], partner 2.5 µg/mL | 0.937 | 0.912 | 0.902 | –
B. subtilis 168 [5], partner 5 µg/mL | 0.815 | 0.795 | 0.851 | –
S. aureus Newman [6], partner 1.25 µg/mL | – | 0.986 | 0.874 | 0.874
S. aureus Newman [6], partner 2.5 µg/mL | – | 0.996 | ≥ 1 | 0.918
S. aureus Newman [6], partner 5 µg/mL | – | 0.982 | 0.963 | ≥ 1
